{
  "source": "patent US4957864A",
  "about": "“Novel plasminogen activator and its preparation process” (Mitsui Toatsu Chemicals, Incorporated, priority 1982, dated 1990)",
  "key": {"[1]": {"target": "tissue activator obtained from human kidney (Homo sapiens, UniProt P00750)", "sequence (P00750 36-562)": "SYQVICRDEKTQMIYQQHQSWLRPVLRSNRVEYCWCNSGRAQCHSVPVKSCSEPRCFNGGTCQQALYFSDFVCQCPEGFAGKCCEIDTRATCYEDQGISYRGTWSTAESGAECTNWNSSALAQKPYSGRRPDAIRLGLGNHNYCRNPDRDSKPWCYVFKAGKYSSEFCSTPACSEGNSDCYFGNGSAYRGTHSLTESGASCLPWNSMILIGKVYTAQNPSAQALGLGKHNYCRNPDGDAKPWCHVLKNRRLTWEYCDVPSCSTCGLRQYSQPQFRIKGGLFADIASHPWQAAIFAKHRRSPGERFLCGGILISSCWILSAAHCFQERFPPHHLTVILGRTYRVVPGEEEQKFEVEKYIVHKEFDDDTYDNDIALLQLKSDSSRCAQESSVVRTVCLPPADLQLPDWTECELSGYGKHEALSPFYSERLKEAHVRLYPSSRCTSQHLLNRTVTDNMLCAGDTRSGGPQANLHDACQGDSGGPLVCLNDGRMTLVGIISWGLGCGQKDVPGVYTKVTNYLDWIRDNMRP", "assay": "biochemical", "type": "biochemical"}, "[2]": {"target": "T1, vascular plasminogen activator (Homo sapiens, UniProt P00750)", "T1 construct": "from tissue; host or cells: blood vessel wall", "T1 sequence (P00750 36-562)": "as above", "assay": "biochemical"}, "[3]": {"assay": "storage and pH stability of activity in buffer solution", "type": "physicochemical", "protocol": "The same result was obtained even when 1M NH4 SCN or 0.02% Tween 80 and 0.1M NaCl were incorporated in the buffer solution.\nThe stability of the plasminogen activator of the present invention was investigated in the pH\nhours in a buffer solution range of 1-10 at 4° C. for 24 containing 0.5M NaCl and 0.02% Tween 80."}, "[4]": {"assay": "isoelectric point by polyacrylamide gel isoelectric-point electrophoresis", "type": "physicochemical", "settings": "7.5% polyacrylamide gel, 8M urea, 1% ampholite", "protocol": "The measurement of the isoelectric point of the purified tissue activator was carried out in a 7.5% polyacrylamide gel containing 8M urea and 1% ampholite in accordance with the method proposed by Mertz et al. [Biochem. Biophys. Res. Commun. 49, 84-91 (1972)]. The sample was solubilized in an 8M urea solution containing 2 mM EDTA and 1% ampholite. Its pH was determined by the method proposed by Finlayson et al. [Anal. Biochem. 40, 292-311 (1971)]."}, "[5]": {"assay": "hydrolytic activity against chromogenic substrate S-2251", "type": "biochemical", "settings": "activator 100 UKIU/ml; 37° C., 405 nm", "protocol": "(§1) The initial release of 7-amino-4-methylcoumarine (AMC) was measured by a fluorometer at 37° C. in a Shimadzu Fluorospectrophotometer Model RF-520. The fluorometer had been set in such a manner that a radiation of a fluorescent light of 380 nm permitted to emit an excited fluorescent light of 460 nm, and also so adjusted that a 0.1% DMSO solution containing […] gave a relative fluorescent unit of 1.0. The hydrolytic activity of the purified tissue activator was measured using a chromogenic substrate, by adding 200 μl of a tissue activator sample, 200 μl of a 0.1M Tris-HCl solution of pH 8.0 containing 0.1M NaCl and 0.02% Tween 80, and 200 μl of a 3 mM S-2251 solution or a 1 mM S-2288 solution. The initial release of p-nitroaniline was measured by a spectrophotometer at 405 nm and 37° C. in a glass cell. The initial velocity of the hydrolytic activity was expressed in terms of ΔmA/min for the chromogenic substrate and Δ%/min for the fluorescent substrate.\nFor plasmin, H-D-valyl-L-leucyl-L-lysine-p-nitroanilide dihydrochloride (S-2251);"}, "anti-urokinase IgG": {"tested_on": "anti-urokinase IgG", "assay": "affinity chromatography on anti-urokinase IgG-Sepharose column", "type": "binding, goat", "excerpt": "The employed urokinase sample was identical to that analyzed in accordance with the SDS-polyacrylamide gel electrophoresis.\nThe gel was washed with a 0.02M Tris-HCl solution of pH 7.4 containing 1.0M NaCl at least 20 times in volume that of the gel."}, "[6]": {"assay": "hydrolytic activity against fluorescent 4-methylcoumaryl-7-amide substrates", "type": "biochemical", "settings": "3093-V, 3095-V, 3096-V, 3097-V", "protocol": "The thus-purified tissue activator was tested with various fluorescent substrates by adding 50 μl of the tissue activator sample in a 0.02M Tris-HCl solution of pH 8.0 containing 0.1M NaCl and 0.02% Tween 80 and 2.0 ml of the substrate in the same buffer solution. The following materials were used as the fluorescent substrates:\nBoc-L-valyl-L-prolyl-L-arginine-4-methyl-coumaryl-7-amide;\nCarbobenzoxy-L-phenylalanyl-L-arginine 4-methylcoumaryl-7-amide;\nL-prolyl-L-phenylalanyl-L-arginine-4-methylcoumaryl-7-amide; and\nGlutaryl-glycyl-L-arginine-4-methylcoumaryl-7-amide.\nas §1, with “The initial velocity of the hydrolytic activity was expressed in terms of ΔmA/min for the chromogenic substrate and Δ%/min for the fluorescent substrate.” left out"}, "[7]": {"assay": "hydrolytic activity against chromogenic substrate S-2288", "type": "biochemical", "settings": "activator 100 UKIU/ml; 37° C., 405 nm", "protocol": "as §1\nFor tissue plasminogen activator, H-D-isoleucyl-L-prolyl-L-arginine-p-nitroanilide dihydrochloride (S-2288)."}, "fibrin [8]": {"tested_on": "fibrin", "assay": "fibrinolytic activity by the fibrin-agar plate method, compared with urokinase (UKIU)", "type": "biochemical", "protocol": "The fibrinolytic activity of the tissue activator was compared with that of urokinase and was expressed in terms of the international unit (UKIU). […] The activity of the tissue activator was determined by measuring the lytic areas of diluted samples within the range of 120-200 mm^2. […] The enzymatic activity of the tissue activator was standardized by the enzymatic activity of urokinase and the percentage recovery of the tissue activator and its specific activity relative to UKIU/ml were measured after each of several purification stages.\nThe non-specific fibrin-resolving activity was measured on a fibrin-agar plate free of plasminogen."}, "[9]": {"tested_on": "antivascular plasminogen activator serum", "assay": "double immunodiffusion with antivascular plasminogen activator and anti-urokinase serums", "type": "binding", "excerpt": "Using the antivascular plasminogen activator and anti-urokinase serums, the antigenicities of the both activators were studied in accordance with the double immunodiffusion method. As a result, both urokinase and the vascular plasminogen activator developed individually a single precipitation curve between themselves and their corresponding anti-urokinase or antivascular plasminogen activator serum.\nIn order to study whether the activators obtained respectively from kidney tissue and the wall of a blood vessel have the same antigenicity as urokinase, the elution profile of proteins and active ingredient of the activator obtained by the antiurokinase IgG-Sepharose affinity chromatographic treatment of the purified activator of Example 1-(6) and the activator of Example 1-(3) was compared with the elution profile of urokinase. […] The protein contained in the effluents was serum albumine incorporated in the commercially available urokinase used in this experiment. […] When the partially-purified sample obtained in Example 1-(3) was poured in the same column, about 15% of the poured activity was adsorbed on the column and eluted with the glycine solution of pH 2.4. […]"}, "[10]": {"tested_on": "insolubilized fibrin monomer", "assay": "adsorption onto fibrin-Sepharose column", "type": "binding, human"}, "fibrin [11]": {"tested_on": "fibrin", "settings": "M.W. 33,000 urokinase sample; cited from earlier work"}, "[12]": {"settings": "Aprotinin 50 KIU/ml, iodoacetamide 10 mM, soybean trypsin 50 mg/ml, L-arginine 100 mM, diisopropyl fluorophosphate 5 mM, 37° C., 1 hour"}, "[13]": {"settings": "diisopropyl fluorophosphate 5 mM, L-arginine 0.1M, Trasylol 50 KIU/ml, iodoacetamide 10 mM, soybean trypsin inhibitor 50 μg/ml"}},
  "note": "Read-outs that look alike come from different tables or passages of the source.",
  "data": [
    {"molecule": "N=C(N)NCCC[C@H](N)C(=O)O", "note": "[L-arginine]", "values": [
      {"measurement": "inhibition at 100000 µM", "setting": "[1]; read-out: inhibition of amide-decomposing activity against S-2288", "value": "≤ 26", "unit": "%"},
      {"measurement": "inhibition at 50 µg/mL", "setting": "[2]; read-out: activity inhibition of the vascular plasminogen activator", "value": 20, "unit": "%"}
    ]},
    {"molecule": "NC(=O)CI", "note": "[iodoacetamide]", "values": [
      {"measurement": "inhibition of amide-decomposing activity against S-2288", "setting": "[1]; [12]", "value": "not inhibited"},
      {"measurement": "activity inhibition of the vascular plasminogen activator", "setting": "[2]; [13]", "value": "no changes"}
    ]},
    {"molecule": "Aprotinin [Trasylol]", "values": [
      {"measurement": "inhibition of amide-decomposing activity against S-2288", "setting": "[1]; [12]", "value": "not inhibited"},
      {"measurement": "activity inhibition of the vascular plasminogen activator", "setting": "[2]; [13]", "value": "no changes"}
    ]},
    {"molecule": "kidney-originated activator: purified tissue plasminogen activator obtained from human kidney in Example 1-(6); molecular weight about 72,000", "values": [
      {"measurement": "pH range in which the activator was stable", "setting": "[3]; 4° C., 24 hours, buffer containing 0.5M NaCl and 0.02% Tween 80, pH 1-10 tested", "value": "2-10"},
      {"measurement": "activity after storage", "setting": "[3]; 4° C., buffer solution of pH 7.4, 2 weeks", "value": "did not give any activity reduction"},
      {"measurement": "reduction of activity", "setting": "[3]; pH 1.0, 4° C., 24 hours, 0.5M NaCl and 0.02% Tween 80", "value": 70, "unit": "%"},
      {"measurement": "isoelectric point (pI) of the main band", "setting": "[4]", "value": 8.2},
      {"measurement": "hydrolytic activity against S-2251", "setting": "[5]", "value": "88 ΔmA/min"},
      {"measurement": "adsorption / affinity for anti-urokinase IgG-Sepharose", "setting": "anti-urokinase IgG", "value": "passed through the column without adsorption"},
      {"measurement": "hydrolytic activity to substrates other than S-2251 and S-2288", "setting": "[6]", "value": "did not show hydrolytic activity"},
      {"measurement": "hydrolytic activity against S-2288", "setting": "[7]", "value": "70 ΔmA/min"},
      {"measurement": "Specific activity", "setting": "fibrin [8]; Table 2, purification stages of tissue plasminogen activator obtained from kidneys", "value": "25,700 UKIU/mg"},
      {"measurement": "specific activity relative to human kidney dried with acetone", "setting": "fibrin [8]; highly purified form", "value": "30,000-45,000 times"},
      {"measurement": "crosslinking of precipitation curves / with antiserum in immunodiffusion", "setting": "[9]", "value": "ready crosslinking reaction"},
      {"measurement": "adsorption onto fibrin-Sepharose column", "setting": "[10]", "value": "adsorbed completely"},
      {"measurement": "total poured activity recovered by elution with 2M NH4 SCN from fibrin-Sepharose", "setting": "[10]", "value": "at least 90%"}
    ]},
    {"molecule": "urokinase [reference compound]", "values": [
      {"measurement": "adsorption / affinity for anti-urokinase IgG-Sepharose", "setting": "anti-urokinase IgG", "value": "adsorbed strongly"},
      {"measurement": "lytic area on fibrin-agar plate", "setting": "fibrin [8]; 10 μl of a 1 IU/ml solution", "value": 156, "unit": "mm^2"},
      {"measurement": "adsorption onto fibrin-Sepharose column", "setting": "[10]", "value": "passed through the column"},
      {"measurement": "specific activity of high-purity human urokinase used as immunogen", "setting": "fibrin [11]", "value": "202,400 IU/mg"}
    ]},
    {"molecule": "vascular plasminogen activator: purified plasminogen activator from human blood vessel walls; single-chain glycoprotein, molecular weight about 70,000", "values": [
      {"measurement": "isoelectric point (pI) of the main band", "setting": "[4]", "value": 7.8},
      {"measurement": "adsorption / affinity for anti-urokinase IgG-Sepharose", "setting": "anti-urokinase IgG", "value": "did not show any affinity"},
      {"measurement": "Specific activity", "setting": "fibrin [8]; Table 1, purification stages of tissue plasminogen activator from blood vessels", "value": "57,400 UKIU/mg"},
      {"measurement": "specific activity of the final plasminogen activator", "setting": "fibrin [8]; blood vessel derived, after final purification", "value": "45,000-80,000 IU/mg proteins"},
      {"measurement": "crosslinking of precipitation curves / with antiserum in immunodiffusion", "setting": "[9]", "value": "no crosslinking was observed"}
    ]},
    {"molecule": "soybean trypsin inhibitor: soybean trypsin inhibitor used as protease inhibitor (protein, UniProt P01070 25-205, looked up) Trypsin inhibitor A: DFVLDNEGNPLENGGTYYILSDITAFGGIRAAPTGNERCPLTVVQSRNELDKGIGTIISSPYRIRFIAEGHPLSLKFDSFAVIMLCVGIPTEWSVVEDLPEGPAVKIGENKDAMDGWFRLERVSDDEFNNYKLVFCPQQAEDDKCGDIGISIDHDDGTRRLVVSKNKPLVVQFQKLDKESL", "values": [
      {"measurement": "inhibition of amide-decomposing activity against S-2288", "setting": "[1]", "value": "not inhibited"},
      {"measurement": "activity inhibition of the vascular plasminogen activator", "setting": "[2]", "value": "no changes"}
    ]}
  ]
}
